Source: article PMC3548404 (Nature, 2010)

Experiments:
[1] = target: T1, AtSLAC1 (Arabidopsis thaliana, UniProt Q9LD83); conditions: 30 mM CsCl bath, pH 5.6; permeant anion; no AtOST1
T1 sequence (Q9LD83 1-556): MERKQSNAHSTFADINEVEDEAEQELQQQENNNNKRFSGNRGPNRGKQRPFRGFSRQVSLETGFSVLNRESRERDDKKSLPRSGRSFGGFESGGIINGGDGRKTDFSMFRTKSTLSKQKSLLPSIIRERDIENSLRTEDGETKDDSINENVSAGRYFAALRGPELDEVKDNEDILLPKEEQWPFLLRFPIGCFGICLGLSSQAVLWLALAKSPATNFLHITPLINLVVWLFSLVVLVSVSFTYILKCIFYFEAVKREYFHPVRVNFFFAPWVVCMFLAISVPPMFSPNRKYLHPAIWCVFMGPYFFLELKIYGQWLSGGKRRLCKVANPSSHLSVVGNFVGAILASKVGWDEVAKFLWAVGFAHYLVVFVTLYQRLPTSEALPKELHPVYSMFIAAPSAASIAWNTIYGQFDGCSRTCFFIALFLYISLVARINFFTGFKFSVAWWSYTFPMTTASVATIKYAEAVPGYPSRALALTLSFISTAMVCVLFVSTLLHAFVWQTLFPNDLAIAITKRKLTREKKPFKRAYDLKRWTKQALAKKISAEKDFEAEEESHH

[2] = target: T1, AtSLAC1; assay: two-electrode voltage clamp, Xenopus oocytes; format: cell-based; conditions: 50 mM sodium salt in bath, pH 5.6; permeant anion

With `Cl` [chloride] the “chloride current at -90 mV” value [1] was “We observed modest-sized chloride currents with wild-type AtSLAC1 cRNA”.

With `O=[N+]([O-])O` [nitrate] the “P[X]/P[Cl]” value [2] was “selective among anions, with greater permeability for nitrate than for chloride”.
